Literature values, collected in patent US20080139497A1, “Use of ATP in controlled regional reperfusion as treatment during acute myocardial infarction” (priority 2006, published 2008).
Read-outs that look alike come from different tables or passages of the source.

Columns and labels:
[1] = small amount, exogenously administered, hypoxic myocardium
[2] = tested on: cultured myocardial cells; settings: addition to cultured myocardial cells
[3] = injected into isolated nonperfused hypothermic dog hearts
isolated muscle fibers = settings: externally added
[4] = infusion; after hemorrhagic shock, severe burns, sepsis-peritonitis, post-ischemic hepatic failure, endotoxin shock
[5] = after acute renal failure in rats
[6] = after acute renal failure in mini-pigs
[7] = added to the perfusate
[8] = from a toxic injury
[9] = following normothermic ischemia, infusion of low dose
[10] = following prolonged ischemia, infusion
[11] = in man
[12] = infused into left coronary artery, patients with coronary artery disease
[13] = treatment after experimental acute myocardial ischemia

Question: For `Nc1ncnc2c1ncn2[C@@H]1O[C@H](COP(=O)(O)OP(=O)(O)O)[C@@H](O)[C@H]1O` [ADP], which “ATP and total adenine nucleotide content” value [1] is on record?
Answer: Its value is “not”.

Question: Which “ATP and total adenine nucleotide content” value [1] does the source give for `Nc1ncnc2c1ncn2[C@@H]1O[C@H](COP(=O)(O)O)[C@@H](O)[C@H]1O` [AMP] here?
Answer: The value was “not”.

Question: What about the ATP content [2] of the same compound?
Answer: The ATP content was “neither adenosine nor AMP produced this effect”.

Question: Which “nucleotide and phosphocreatine levels” value [3] does the source give for `Nc1ncnc2c1ncn2[C@@H]1O[C@H](COP(=O)(O)OP(=O)(O)OP(=O)(O)O)[C@@H](O)[C@H]1O` [ATP, adenosine 5′-triphosphate] here?
Answer: The value was “improved nucleotide and phosphocreatine levels”.

Question: What about the “ATP and total adenine nucleotide content” value [1] of the same compound?
Answer: The value was “increased the ATP and total adenine nucleotide content”.

Question: And the contraction (isolated muscle fibers)?
Answer: Its contraction is “induced contraction”.

Question: And the ATP content [2]?
Answer: Its ATP content is “caused an increase in ATP content”.

Question: For `Nc1ncnc2c1ncn2[C@@H]1O[C@H](CO)[C@@H](O)[C@H]1O` [adenosine], which ATP content [2] is on record?
Answer: Its ATP content is “neither adenosine nor AMP produced this effect”.

Question: With ATP-MgCl2 as the compound, how does the survival of animals [4] read?
Answer: Its survival of animals is “proved beneficial for the survival of animals”.

Question: And the “recovery of renal function” value [5]?
Answer: Its value is “accelerate the recovery of renal function”.

Question: And the “recovery of renal function” value [6]?
Answer: Its value is “accelerate the recovery of renal function”.

Question: What about the “salvage of kidneys subjected to warm ischemia” value [7] of the same compound?
Answer: Its value is “could be salvaged”.

Question: And the renal recovery [8]?
Answer: The renal recovery was “effective in hastening renal recovery”.

Question: What about the “ornithine metabolism and tissue lactate level” value (during hemorrhagic shock, exogenously administered) of the same compound?
Answer: Its value is “can reverse the inhibition of ornithine metabolism and the change in tissue lactate level”.

Question: And the tissue lactate production (infused)?
Answer: The tissue lactate production was “decreased tissue lactate production”.

Question: And the myocardial recovery [9]?
Answer: The myocardial recovery was “improved myocardial recovery”.

Question: And the myocardial performance [10]?
Answer: Its myocardial performance is “can improve myocardial performance”.

Question: What about the “safety and hemodynamic response” value [11] of the same compound?
Answer: Its value is “has been demonstrated”.

Question: And the myocardial oxygen consumption [12]?
Answer: Its myocardial oxygen consumption is “reduction of myocardial oxygen consumption”.

Question: And the “protection of the heart from ischemia” value [13]?
Answer: The value was “protects the heart from the adverse effects of ischemia”.
